Values of other authors as cited in patent US10926237B2, “Soluble corrosion resistant sol-gel” (THE BOEING COMPANY, priority 2018, dated 2021).

water solubility (in words): water soluble
Compound: Sc1nnc(S)s1 [2,5-Dimercapto-1,3,4-thiadiazole, 2,5-dimercapto-1,3,4-thiadiazole]
